The record followed here is patent US7722890B2, “Synthetic anti-Candida albicans oligosaccharide based vaccines” (Theracarb, Inc., priority 2002, dated 2010).

In experiment [1] the test system is IgM monoclonal antibody B6.1. Briefly: competitive inhibition ELISA: binding of IgM MAb B6.1 to C. albicans mannan extract. Also noted: species or system mouse. Particulars: FIG. 7. The protocol:
(§1) These monoclonal antibodies are IgM B6.1 and IgG C3.1. The affinity of these monoclonal antibodies for the synthesized propyl glycosides was determined in a competitive inhibition ELISA. The monoclonal antibodies, MAb B6.1 (IgM) and MAb C3.1 (IgG3) were produced as concentrated tissue culture supernatants and diluted ˜1:40,000 (B6.1) and ˜1:2000 (C3.1). C. albicans mannan obtained by 2-mercaptoethanol extraction of whole cells without subsequent affinity fractionation^27 was dissolved in PBS (10 μg/mL) and the solution was used to coat 96 well ELISA plates (100 μL, 18 h at 4° C.). The plate was washed five times with PBST containing Tween 20, 0.05% v/v) and blocked for 1 h at room temperature (2% BSA PBS, 100 μL). The monoclonal antibodies were mixed with inhibitor dissolved in PBST at concentrations in the range between 0.1 μM to 1 mM, and the resulting solutions were added to the coated microtitre plate in triplicate and incubated at room temperature for 18 h. The plate was washed with PBST (5×), and goat anti-mouse (IgG or IgM) antibody conjugated to horseradish peroxidase (diluted 1:2000, Kirkegaard and Perry Lab) in PBST (100 μL) was added and incubated for 1 h at room temperature. The plate was washed with PBST (5×), 3,3′,5,5′-tetramethylbenzidine (TMB, 100 μL, Kirkegaard and Perry Lab) was added, and after 2 minutes the colour reaction was stopped by the addition of 1M phosphoric acid (100 μL). Absorbance was read at 450 nm and percent inhibition was calculated relative to wells containing antibody without inhibitor, and the concentration of ligand that gives 50% inhibition is quoted as an IC50 value.

Another experiment concerns MAb C3.1 (IgG3). Put plainly: competitive inhibition ELISA: binding of IgG MAb C3.1 to C. albicans mannan extract. Also noted: species or system mouse. How it is done: as §1, with “The plate was washed with PBST (5×), 3,3′,5,5′-tetramethylbenzidine (TMB, 100 μL, Kirkegaard and Perry Lab) was added, and after 2 minutes the colour reaction was stopped by the addition of 1M phosphoric acid (100 μL). Absorbance was read at 450 nm and percent inhibition was calculated relative to wells containing antibody without inhibitor, and the concentration of ligand that gives 50% inhibition is quoted as an IC50 value.” left out

Take `CCCOC1OC(CO)C(O)C(O)C1OC1OC(CO)C(O)C(O)C1OC1OC(CO)C(O)C(O)C1O` (centres unmarked) [compound 18]: the “affinity of IgM antibody B6.1 for propyl mannosides” value (“affinity … for propyl mannosides” below) in experiment [1] is reported as “surprisingly high affinity”. The “affinity for the IgG antibody relative to the IgM MAb” value with MAb C3.1 (IgG3) (FIG. 8 vs FIG. 7) is listed as “two fold”.

For `CCCO[C@@H]1O[C@H](CO)[C@@H](O)[C@H](O)[C@@H]1O[C@@H]1O[C@H](CO)[C@@H](O)[C@H](O)[C@@H]1O` [compound 17], the “affinity … for propyl mannosides” value in experiment [1] was “surprisingly high affinity”. For the same compound, in the experiment on MAb C3.1 (IgG3) (FIG. 8), the “affinity / inhibition curve for the IgG antibody” value is “flattened binding curve”.

With “propyl (1-thio-β-D-mannopyranosyl)-(1→2)-β-D-mannopyranotrioside [compound 32]”, the “affinity … for propyl mannosides” value in experiment [1] is “falls between the tri and tetrasaccharide in affinity”.
